Data as given in US20260356856A1, “KRAS G12S AND G12C INHIBITORS” (MIRATI THERAPEUTICS, INC., priority 2023, published 2026).

Columns and labels:
KRas G12C = molecular target: T1, KRas G12C (Homo sapiens, UniProt P01116, G12C); experiment: KRas binding assay, TR-FRET displacement of Cy5 labelled tracer; conditions: 60-minute incubation at room temperature, 1% DMSO, pH 7.5
T1 construct: Biotinylated KRas (corresponding to amino acids 1-169, produced at Accelegan Inc.); biotin (biotinylated); purchased Accelegan Inc
T1 sequence (P01116 1-169 isoform P01116-2 G12C): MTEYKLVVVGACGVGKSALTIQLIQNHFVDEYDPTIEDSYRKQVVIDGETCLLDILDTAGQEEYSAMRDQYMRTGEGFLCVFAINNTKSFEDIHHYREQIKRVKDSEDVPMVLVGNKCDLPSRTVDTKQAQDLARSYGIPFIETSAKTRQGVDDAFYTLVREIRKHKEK
Procedure, shortened: (§1)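 Assay buffer was HEPES (50 mM, pH 7.5) with MgCl2 (5 mM), DTT (1 mM) and Tween-20 (0.005%). Biotinylated KRas spanning residues 1-169 met tracer, terbium streptavidin and compound (1% DMSO, final) for 60 minutes at ambient temperature before reading. POC values were fitted for IC50.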

KRas G12S = molecular target: T2, KRas G12S (Homo sapiens, UniProt P01116, G12S); experiment: as above; conditions: 60-minute incubation at room temperature, 1% DMSO, pH 7.5
T2 construct: Biotinylated KRas (corresponding to amino acids 1-169, produced at Accelegan Inc.); biotin (biotinylated); purchased Accelegan Inc
T2 sequence (P01116 1-169 isoform P01116-2 G12S): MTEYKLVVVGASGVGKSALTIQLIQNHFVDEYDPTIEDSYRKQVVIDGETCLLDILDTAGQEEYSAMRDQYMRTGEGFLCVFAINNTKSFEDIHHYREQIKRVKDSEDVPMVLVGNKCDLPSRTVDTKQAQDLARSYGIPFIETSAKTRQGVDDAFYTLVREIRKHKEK
Procedure, shortened: as §1

KRas WT = molecular target: T3, KRas WT (Homo sapiens, UniProt P01116); experiment: as above; conditions: 60-minute incubation at room temperature, 1% DMSO, pH 7.5
T3 construct: Biotinylated KRas (corresponding to amino acids 1-169, produced at Accelegan Inc.); biotin (biotinylated); purchased Accelegan Inc
T3 sequence (P01116 1-169 isoform P01116-2): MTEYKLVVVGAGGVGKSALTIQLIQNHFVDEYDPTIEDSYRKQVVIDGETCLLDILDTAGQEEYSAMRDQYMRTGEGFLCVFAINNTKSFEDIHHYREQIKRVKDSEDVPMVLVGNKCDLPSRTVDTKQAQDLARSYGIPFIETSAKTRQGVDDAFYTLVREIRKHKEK
Procedure, shortened: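 Biotinylated KRas (aa 1-169) incubated with Cy5-labelled tracer, terbium streptavidin and compound (1% DMSO final) in 50 mM HEPES pH 7.5, 5 mM MgCl2, 0.005% Tween-20, 1 mM DTT. Tracer displacement read by TR-FRET after 60 min at room temperature; POC values fitted to 4-parameter IC50 equation.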

[1] = molecular target: T4, KRas-mediated phosphorylation of ERK in MKN1 cells (Homo sapiens, UniProt P01116); experiment: Inhibition of KRas-mediated phosphorylation of ERK (HTRF), MKN1 cells; format: cell-based; conditions: MKN1 cells (KRas WT); HTRF pERK; 3 h incubation
T4 construct: pERK HTRF read-out
T4 sequence (P01116 1-188 isoform P01116-2): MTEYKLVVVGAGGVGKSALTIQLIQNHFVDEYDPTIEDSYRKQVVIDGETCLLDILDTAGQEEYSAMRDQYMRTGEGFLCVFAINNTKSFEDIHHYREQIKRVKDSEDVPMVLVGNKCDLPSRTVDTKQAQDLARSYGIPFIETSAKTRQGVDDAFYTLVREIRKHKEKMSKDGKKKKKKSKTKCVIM
Protocol: Inhibition of KRas Phosphorylation of ERK (HTRF) by Exemplary Compounds of Formula (Ia) or (Ib)
Cisbio HTRF Advanced pERK Assay Catalog #64AERPEH • Cells: MKN1, PSN1 • Procedure: • 1. Day 1: Seed 6,000 cells/well −25 μl/well in 384-well white solid bottom plate; RPM1_10% FBS. Incubate overnight at 37 °C/5% CO2. • 2.

[2] = molecular target: T5, KRas-mediated phosphorylation of ERK in A549 cells (Homo sapiens, UniProt P01116, G12S); experiment: Inhibition of KRas-mediated phosphorylation of ERK (HTRF), A549 cells; format: cell-based; conditions: HTRF pERK, 3 h incubation
T5 construct: pERK HTRF read-out
T5 sequence (P01116 1-188 isoform P01116-2 G12S): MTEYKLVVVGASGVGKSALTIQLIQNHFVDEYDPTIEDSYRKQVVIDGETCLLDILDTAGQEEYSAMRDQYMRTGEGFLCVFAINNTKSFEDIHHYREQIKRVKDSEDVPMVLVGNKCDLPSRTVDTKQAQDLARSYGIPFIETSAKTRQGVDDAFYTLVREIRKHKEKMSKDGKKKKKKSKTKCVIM

[3] = molecular target: T6, KRas-mediated phosphorylation of ERK in H358 cells (Homo sapiens, UniProt P01116, G12C); experiment: Inhibition of KRas-mediated phosphorylation of ERK (HTRF), H358 cells; format: cell-based; conditions: HTRF pERK, 3 h incubation
T6 construct: pERK HTRF read-out
T6 sequence (P01116 1-188 isoform P01116-2 G12C): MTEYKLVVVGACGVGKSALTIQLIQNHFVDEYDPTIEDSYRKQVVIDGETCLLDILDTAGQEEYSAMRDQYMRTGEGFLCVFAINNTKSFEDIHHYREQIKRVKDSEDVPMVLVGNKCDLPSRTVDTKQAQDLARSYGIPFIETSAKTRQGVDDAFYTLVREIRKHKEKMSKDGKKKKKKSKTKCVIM

SMILES | IC50 (KRas G12C) | IC50 (KRas G12S) | IC50 (KRas WT) | IC50 [1] | IC50 [2] | IC50 [3]
Cc1ccn(C(=O)[C@H]2CCCN(c3nc(OC[C@@]45CCCN4C[C@H](F)C5)nc4c(F)c(-c5ccc(F)c6sc(N)c(C#N)c56)c(Cl)cc34)CC2)n1 (atropisomer, axis not shown; (aS)) [Example 170, 2-amino-4-((S)-6-chloro-8-fluoro-2-(((2R,7aS)-2-fluorotetrahydro-1H-pyrrolizin-7a(5H)-yl)methoxy)-4-((S)-4-(3-methyl-1H-pyrazole-1-carbonyl)azepan-1-yl)quinazolin-7-yl)-7-fluorobenzo[b]thiophene-3-carbonitrile] | 2 nM | 2 nM | 9 nM | 53 nM | 2 nM | 3 nM
Cc1ccn(C(=O)[C@@H]2CCCN(c3nc(OC[C@@]45CCCN4C[C@H](F)C5)nc4c(F)c(-c5ccc(F)c6sc(N)c(C#N)c56)c(Cl)cc34)CC2)n1 (atropisomer, axis not shown; (aS)) [Example 172, 2-amino-4-((S)-6-chloro-8-fluoro-2-(((2R,7aS)-2-fluorotetrahydro-1H-pyrrolizin-7a(5H)-yl)methoxy)-4-((R)-4-(3-methyl-1H-pyrazole-1-carbonyl)azepan-1-yl)quinazolin-7-yl)-7-fluorobenzo[b]thiophene-3-carbonitrile] | – | – | – | 199 nM | 35 nM | 50 nM
CCc1c(F)ccc2cc(O)cc(-c3ncc4c(N5CCN(C(=O)n6ccc(C)n6)C6(CC6)C5)nc(OC[C@@]56CCCN5C[C@H](F)C6)nc4c3F)c12 (single isomer, unassigned) [Example 78] | 128 nM | 146 nM | 25 nM | 90 nM | 3820 nM | 1250 nM
CCc1c(F)ccc2cc(O)cc(-c3ncc4c(N5CCN(C(=O)n6nccn6)CC5)nc(OC[C@@]56CCCN5C[C@H](F)C6)nc4c3F)c12 (single isomer, unassigned) [Example 152] | 73 nM | 84 nM | 39 nM | 251 nM | 2180 nM | 83 nM
CCc1c(F)ccc2cc(O)cc(-c3ncc4c(N(C)CCN(C)C(=O)n5nccn5)nc(OC[C@@]56CCCN5C[C@H](F)C6)nc4c3F)c12 (single isomer, unassigned) [Example 207] | 22 nM | 66 nM | 238 nM | 1390 nM | 6650 nM | 34 nM
CCc1c(F)ccc2cc(O)cc(-c3ncc4c(N(C)CCN(C)C(=O)n5ccnn5)nc(OC[C@@]56CCCN5C[C@H](F)C6)nc4c3F)c12 (single isomer, unassigned) [Example 208] | 4 nM | 74 nM | 171 nM | 854 nM | 3980 nM | 4 nM
CCc1c(F)ccc2cc(O)cc(N3CCc4c(nc(OC[C@@]56CCCN5C[C@H](F)C6)nc4N4CCCC(C(=O)n5ccc(C)n5)C4)C3)c12 (stereo partly drawn) [Example 144, (1-(7-(8-ethyl-7-fluoro-3-hydroxynaphthalen-1-yl)-2-(((2R,7aS)-2-fluorotetrahydro-1H-pyrrolizin-7a(5H)-yl)methoxy)-5,6,7,8-tetrahydropyrido[3,4-d]pyrimidin-4-yl)piperidin-3-yl)(3-methyl-1H-pyrazol-1-yl)methanone] | 50 nM | 32 nM | 68 nM | – | 5900 nM | 178 nM
CCc1c(F)ccc2cc(O)cc(-c3ncc4c(N5CCC(C(=O)Nc6ccccn6)CC5)nc(OC[C@@]56CCCN5C[C@H](F)C6)nc4c3F)c12 [Example 153, 1-(7-(8-ethyl-7-fluoro-3-hydroxynaphthalen-1-yl)-8-fluoro-2-(((2R,7aS)-2-fluorotetrahydro-1H-pyrrolizin-7a(5H)-yl)methoxy)pyrido[4,3-d]pyrimidin-4-yl)-N-(pyridin-2-yl)piperidine-4-carboxamide] | 439 nM | 642 nM | 138 nM | – | 4130 nM | 1760 nM
CCc1c(F)ccc2cc(O)cc(-c3ncc4c(N5CC[C@H]6[C@@H](C5)[C@H]6C(=O)n5ccc(C)n5)nc(OC[C@@]56CCCN5C[C@H](F)C6)nc4c3F)c12 [Example 156, ((1R,6S,7S)-3-(7-(8-ethyl-7-fluoro-3-hydroxynaphthalen-1-yl)-8-fluoro-2-(((2R,7aS)-2-fluorotetrahydro-1H-pyrrolizin-7a(5H)-yl)methoxy)pyrido[4,3-d]pyrimidin-4-yl)-3-azabicyclo[4.1.0]heptan-7-yl)(3-methyl-1H-pyrazol-1-yl)methanone] | 89 nM | 15 nM | – | 2090 nM | 38 nM | 2350 nM

Results, then the molecule that gave them:

IC50 (KRas G12C) | IC50 (KRas G12S) | IC50 (KRas WT) | IC50 [1] | IC50 [2] | IC50 [3] | SMILES
7 nM | 15 nM | 10 nM | 41 nM | 104 nM | 108 nM | CC(=O)N(C)C(=O)[C@H]1C[C@@H]2CN(c3nc(OC[C@@]45CCCN4C[C@H](F)C5)nc4c(F)c(-c5ccc(F)c6sc(N)c(C#N)c56)c(Cl)cc34)C[C@@H]2C1 (atropisomer, axis not shown; (aR)) [Example 236, (3aR,5S,6aS)-N-acetyl-2-((S)-7-(2-amino-3-cyano-7-fluorobenzo[b]thiophen-4-yl)-6-chloro-8-fluoro-2-(((2R,7aS)-2-fluorotetrahydro-1H-pyrrolizin-7a(5H)-yl)methoxy)quinazolin-4-yl)-N-methyloctahydrocyclopenta[c]pyrrole-5-carboxamide]
5 nM | 2 nM | 4 nM | 19 nM | 3 nM | 8 nM | CC(=O)N(C)C(=O)[C@H]1CCCN(c2nc(OC[C@@]34CCCN3C[C@H](F)C4)nc3c(F)c(-c4ccc(F)c5sc(N)c(C#N)c45)c(Cl)cc23)CC1 (atropisomer, axis not shown; (aS)) [Example 256, (S)—N-acetyl-1-((S)-7-(2-amino-3-cyano-7-fluorobenzo[b]thiophen-4-yl)-6-chloro-8-fluoro-2-(((2R,7aS)-2-fluorotetrahydro-1H-pyrrolizin-7a(5H)-yl)methoxy)quinazolin-4-yl)-N-methylazepane-4-carboxamide]
< 2 nM | < 2 nM | 4 nM | 36 nM | 6 nM | 18 nM | CC(=O)N(C)C(=O)CCCN(C)c1nc(OC[C@@]23CCCN2C[C@H](F)C3)nc2c(F)c(-c3ccc(F)c4sc(N)c(C#N)c34)c(Cl)cc12 (atropisomer, axis not shown; (aS)) [Example 260, N-acetyl-4-(((S)-7-(2-amino-3-cyano-7-fluorobenzo[b]thiophen-4-yl)-6-chloro-8-fluoro-2-(((2R,7aS)-2-fluorotetrahydro-1H-pyrrolizin-7a(5H)-yl)methoxy)quinazolin-4-yl)(methyl)amino)-N-methylbutanamide]
< 2 nM | 2 nM | 4 nM | 142 nM | 1480 nM | 23 nM | CN(CCN(C)c1nc(OC[C@@]23CCCN2C[C@H](F)C3)nc2c(F)c(-c3ccc(F)c4sc(N)c(C#N)c34)c(Cl)cc12)C(=O)n1nccn1 (single isomer, unassigned) [Example 202]
< 2 nM | 3 nM | 4 nM | 101 nM | 195 nM | 1 nM | CN(CCN(C)c1nc(OC[C@@]23CCCN2C[C@H](F)C3)nc2c(F)c(-c3ccc(F)c4sc(N)c(C#N)c34)c(Cl)cc12)C(=O)n1ccnn1 (single isomer, unassigned) [Example 203]
